Drawing on patent US20240262804A1, “NITROGEN-CONTAINING HETEROCYCLIC KETONES, PREPARATION METHODS AND MEDICINAL USES THEREOF” (Hansoh Bio LLC, priority 2021, published 2024), this text covers IC50 for 30 compounds.

For orientation: IC50 means the concentration that inhibits the measured activity by half.

The target in the assay is bovine cardiac myosin (Bos taurus (Bovine), UniProt Q9BE39). Nature of the assay: Myosin inhibitory potency: PK/LDH-coupled ATPase assay on bovine skinned cardiac myofibrils. The format is biochemical. The settings on record: pCa=6.25, 50 μM ATP, 25° C., read-out: myosin inhibition activity IC50. As to the method: The average rates of ATPase inhibition, and the IC50 values are determined by Victor Nivo multimode plate reader (PerkinElmer, USA).
Sequence of bovine cardiac myosin (Q9BE39 whole entry): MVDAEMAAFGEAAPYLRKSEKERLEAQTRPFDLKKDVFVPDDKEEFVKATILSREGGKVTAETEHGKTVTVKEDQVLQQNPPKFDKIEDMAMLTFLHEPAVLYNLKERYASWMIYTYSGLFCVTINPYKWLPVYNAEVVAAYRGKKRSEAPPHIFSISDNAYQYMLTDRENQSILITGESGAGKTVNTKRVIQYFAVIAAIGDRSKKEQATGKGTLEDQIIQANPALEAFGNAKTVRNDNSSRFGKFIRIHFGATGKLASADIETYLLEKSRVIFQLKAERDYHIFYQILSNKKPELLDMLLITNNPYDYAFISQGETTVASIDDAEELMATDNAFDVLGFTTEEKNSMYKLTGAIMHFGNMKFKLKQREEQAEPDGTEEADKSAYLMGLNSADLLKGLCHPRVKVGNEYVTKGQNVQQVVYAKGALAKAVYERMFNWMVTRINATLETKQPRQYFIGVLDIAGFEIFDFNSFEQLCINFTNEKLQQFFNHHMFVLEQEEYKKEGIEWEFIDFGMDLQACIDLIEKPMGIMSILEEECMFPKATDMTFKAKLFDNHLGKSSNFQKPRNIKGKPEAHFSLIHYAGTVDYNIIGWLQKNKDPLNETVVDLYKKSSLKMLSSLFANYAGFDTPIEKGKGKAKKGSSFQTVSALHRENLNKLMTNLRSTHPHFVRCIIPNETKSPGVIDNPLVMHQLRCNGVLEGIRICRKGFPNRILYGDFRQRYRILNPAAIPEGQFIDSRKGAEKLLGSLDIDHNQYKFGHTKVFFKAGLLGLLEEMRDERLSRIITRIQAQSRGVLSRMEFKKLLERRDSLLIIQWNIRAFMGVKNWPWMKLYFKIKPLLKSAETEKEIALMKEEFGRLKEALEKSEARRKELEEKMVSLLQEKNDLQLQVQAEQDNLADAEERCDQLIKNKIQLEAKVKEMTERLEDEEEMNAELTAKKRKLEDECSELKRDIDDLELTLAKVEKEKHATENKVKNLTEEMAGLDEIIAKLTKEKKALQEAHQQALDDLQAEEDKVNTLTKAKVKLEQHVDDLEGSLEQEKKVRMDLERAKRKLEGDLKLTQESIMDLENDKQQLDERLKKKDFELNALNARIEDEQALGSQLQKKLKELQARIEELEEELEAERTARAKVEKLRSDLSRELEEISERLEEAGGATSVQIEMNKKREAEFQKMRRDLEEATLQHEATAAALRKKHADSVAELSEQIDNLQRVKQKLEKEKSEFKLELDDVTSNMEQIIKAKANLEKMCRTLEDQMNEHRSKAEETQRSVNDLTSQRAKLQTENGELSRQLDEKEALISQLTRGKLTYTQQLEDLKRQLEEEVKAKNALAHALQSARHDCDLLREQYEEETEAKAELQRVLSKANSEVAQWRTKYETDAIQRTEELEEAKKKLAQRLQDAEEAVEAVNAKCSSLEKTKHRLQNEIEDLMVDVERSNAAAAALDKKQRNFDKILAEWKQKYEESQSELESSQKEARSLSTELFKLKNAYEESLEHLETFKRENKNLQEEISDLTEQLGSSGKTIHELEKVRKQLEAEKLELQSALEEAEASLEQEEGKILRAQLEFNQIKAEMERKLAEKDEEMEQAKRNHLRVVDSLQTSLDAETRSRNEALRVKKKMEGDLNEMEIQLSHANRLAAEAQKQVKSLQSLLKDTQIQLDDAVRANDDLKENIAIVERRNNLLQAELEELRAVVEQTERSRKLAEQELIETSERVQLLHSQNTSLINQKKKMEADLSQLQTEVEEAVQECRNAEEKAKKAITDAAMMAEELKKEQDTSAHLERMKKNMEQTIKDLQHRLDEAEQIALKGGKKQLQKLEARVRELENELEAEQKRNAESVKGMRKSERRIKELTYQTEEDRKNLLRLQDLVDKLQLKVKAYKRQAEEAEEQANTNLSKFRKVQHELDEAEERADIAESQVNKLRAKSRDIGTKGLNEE
Sequence of bovine cardiac myosin (P85100 whole entry partner): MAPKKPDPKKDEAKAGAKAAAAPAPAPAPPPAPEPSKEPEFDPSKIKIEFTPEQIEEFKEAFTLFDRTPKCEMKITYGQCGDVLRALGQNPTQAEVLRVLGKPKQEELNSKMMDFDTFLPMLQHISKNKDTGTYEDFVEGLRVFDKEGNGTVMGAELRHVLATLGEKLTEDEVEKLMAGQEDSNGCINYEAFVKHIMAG
Sequence of bovine cardiac myosin (Q3SZE5 whole entry partner): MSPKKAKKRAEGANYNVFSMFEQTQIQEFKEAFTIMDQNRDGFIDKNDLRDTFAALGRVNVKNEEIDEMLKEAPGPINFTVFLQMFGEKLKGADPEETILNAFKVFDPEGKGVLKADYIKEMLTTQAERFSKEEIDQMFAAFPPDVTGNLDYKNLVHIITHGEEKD
As to the assays background, a biochemical assay couples the ATPase activity of bovine cardiac myosin to an enzymatic coupling system consisting of pyruvate kinase and lactate dehydrogenase (PK/LDH) and monitoring the absorbance decrease of NADH (at 340 nm) as a function of time to measure the inhibitory ability of small molecule agents. In the assay, PK converts ADP (Adenosine diphosphate) to ATP (adenosine triphosphate) by converting PEP (phosphoenolpyruvate) to pyruvate. Pyruvate is then converted to lactate by LDH by converting NADH (nicotinamide adenine dinucleotide) to NAD (oxidized nicotinamide adenine dinucleotide).
In our experiments, bovine skinned cardiac myofibrils were isolated from the frozen bovine left ventricle as myosin's source in the ATPase assay. The calcium concentration that achieves a 50% (pCa50 or pCa=6.25) activation of the myofibril system was chosen as the final condition for assessing the activation activity according to the literature (DOI: 10.1074/jbc.M117.776815). Myofibrils ATPase activity was measured in a buffered solution containing 12 mM PIPES (piperazine-N, N′-bis(2-ethane sulfonic acid) and 2 mM magnesium chloride at pH 6.8 (PM12 buffer). Final assay conditions were 1 mg/mL of bovine cardiac myofibrils, 1:20 of stock PK/LDH (Sigma-Aldrich, Cat No. P0294-5X5ML), 50 μM ATP, 1 mM DTT (dithiothreitol), 0.75 mM NADH, 1.5 mM PEP at pCa50 (pCa=6.25). Compounds were dissolved in DMSO (dimethyl sulfoxide). Serial dilution of compounds was created such that the final desired concentration of compound would be achieved in a volume of 150 μL with a fixed DMSO concentration of 2% (v/v). 75 μL of a solution containing bovine cardiac myofibrils, PK/LDH, and calcium were added to a 96 well plate for a 7 point dose-response. In some circumstances, 10 point-response was used to repeat the ATPase assays on compounds of interest. Compounds were added to the myofibrils solution and incubated for 5 minutes. The enzymatic reaction was started with the addition of 75 μL of a solution containing ATP, PEP, NADH, compounds, and calcium. The ATPase activity was measured by reading absorbance at 340 nm in a PerkinElmer Victor Nivo plate reader at 25° C. in kinetic mode for 15 minutes using clear bottom plates. The slopes of the absorbance changes as a function of time for the first 10 minutes were normalized to slopes on the control wells containing all reagents, including DMSO, but without compounds. This normalized rate was then plotted as a function of small molecule concentration in GraphPad prism 9. The data were fitted to a four-parameter fit, and IC50 was calculated using Graphpad Prism 9.
For the compound `C[C@H](Nc1nc(=O)n(C2CCOCC2)c(=O)[nH]1)c1cccc(F)c1` [Example 124], the IC50 amounted to 1740 nM.

Regarding `CC(Nc1nc(=O)n(C2CCOCC2)c(=O)[nH]1)c1ccc(F)cc1` (stereo not drawn) [Example 125], the concentration for half-maximal inhibition (IC50) was 8400 nM.

`CC(Nc1nc(=O)n(C2CCOCC2)c(=O)[nH]1)c1cc(F)ccc1F` (stereo not drawn) [Example 127]: the IC50 is 1830 nM.

With `CC(Nc1nc(=O)n(C2CCOCC2)c(=O)[nH]1)c1ccc2c(c1)OCO2` (stereo not drawn) [Example 128], the IC50 worked out at 1880 nM.

As to `CC(Nc1nc(=O)n(C2CCOCC2)c(=O)[nH]1)c1ccccc1C(F)(F)F` (stereo not drawn) [Example 129], the IC50 came out at 230 nM.

Consider `CC(Nc1nc(=O)n(C2CCOCC2)c(=O)[nH]1)c1cccc(C(F)(F)F)c1` (stereo not drawn) [Example 130], for which the IC50 is 4700 nM.

Consider `CC(Nc1nc(=O)n(C2CCOCC2)c(=O)[nH]1)c1ccc(C(F)(F)F)cc1` (stereo not drawn) [Example 131], for which the IC50 stood at 2490 nM.

For `Cc1cccc(C(C)Nc2nc(=O)n(C3CCOCC3)c(=O)[nH]2)c1` (stereo not drawn) [Example 133], the IC50 was 240 nM.

Consider `Cc1ccc(C(C)Nc2nc(=O)n(C3CCOCC3)c(=O)[nH]2)cc1` (stereo not drawn) [Example 134], for which the IC50 was 3640 nM.

Turning to `CC(Nc1nc(=O)n(C2CCOCC2)c(=O)[nH]1)c1cccc(C2CC2)c1` (stereo not drawn) [Example 136], the IC50 came to 4980 nM.

Regarding `CC(Nc1nc(=O)n(C2CCOCC2)c(=O)[nH]1)c1ccc(C2CC2)cc1` (stereo not drawn) [Example 137], the IC50 amounted to 4930 nM.

For `CC(Nc1nc(=O)n(C2CCOCC2)c(=O)[nH]1)c1cccc(CO)c1` (stereo not drawn) [Example 139], the IC50 worked out at 6650 nM.

Regarding `CC(Nc1nc(=O)n(C2CCOCC2)c(=O)[nH]1)c1ccc(CO)cc1` (stereo not drawn) [Example 140], the 50% inhibitory concentration (IC50) is 12300 nM.

As to `C=Cc1ccc(C(C)Nc2nc(=O)n(C3CCOCC3)c(=O)[nH]2)cc1` (stereo not drawn) [Example 141], the IC50 stood at 6790 nM.

Take `O=c1nc(NC(CF)c2ccccc2)[nH]c(=O)n1C1CCCCC1` (stereo not drawn) [Example 142]: the IC50 worked out at 4830 nM.

For `O=c1nc(NC(c2ccccc2)C(F)F)[nH]c(=O)n1C1CCOCC1` (stereo not drawn) [Example 143], the IC50 was found to be 7640 nM.

Turning to `CC(Nc1nc(=O)n(C2CCN(C(=O)OC(C)(C)C)CC2)c(=O)[nH]1)c1ccc(C(F)(F)F)cc1` (stereo not drawn) [Example 145], the IC50 was 3770 nM.

As for `Cc1cccc(C(C)Nc2nc(=O)n(C3CCN(C(=O)OC(C)(C)C)CC3)c(=O)[nH]2)c1` (stereo not drawn) [Example 146], the IC50 stood at 5510 nM.

In the case of `CC(Nc1nc(=O)n(C2CCOCC2)c(=O)[nH]1)c1ccc2c(c1)OC(F)(F)O2` (stereo not drawn) [Example 148], the IC50 worked out at 1140 nM.

On to `O=c1nc(NC2CCc3ccccc32)[nH]c(=O)n1C1CCOCC1` (stereo not drawn) [Example 149], for which the IC50 is 5500 nM.

Regarding `COc1ccccc1[C@H](C)Nc1nc(=O)n(C2CCOCC2)c(=O)[nH]1` [Example 150], the IC50 amounted to 6630 nM.

On to `C[C@H](Nc1nc(=O)n(C2CCOCC2)c(=O)[nH]1)c1cc(Cl)cc(Cl)c1` [Example 151], for which the half-inhibitory concentration (IC50) worked out at 1770 nM.

`Cc1ccc([C@H](C)Nc2nc(=O)n(C3CCOCC3)c(=O)[nH]2)cc1C` [Example 153]: the IC50 came to 1230 nM.

Take `C[C@H](Nc1nc(=O)n(C2CCOCC2)c(=O)[nH]1)c1cccc(Cl)c1` [Example 154]: the IC50 turned out to be 370 nM.

As for `C[C@H](Nc1nc(=O)n(C2CCOCC2)c(=O)[nH]1)c1ccc(C(F)F)cc1` [Example 157], the IC50 came to 1000 nM.

`C[C@H](Nc1nc(=O)n(C2CCOCC2)c(=O)[nH]1)c1ccc(F)c(Br)c1` [Example 158]: the half-maximal inhibitory concentration (IC50) is 520 nM.

As to `C[C@H](Nc1nc(=O)n(C2CCOCC2)c(=O)[nH]1)c1ccccc1Cl` [Example 159], the IC50 was 470 nM.

Take `C[C@H](Nc1nc(=O)n(C2CCOCC2)c(=O)[nH]1)c1ccc(C(C)(C)C)cc1` [Example 160]: the IC50 came out at 1600 nM.

Take `Cc1ccc([C@H](C)Nc2nc(=O)n(C3CCOCC3)c(=O)[nH]2)cc1F` [Example 161]: the IC50 is 1050 nM.

As for `C[C@H](Nc1nc(=O)n(C2CCOCC2)c(=O)[nH]1)c1ccc(F)c(F)c1` [Example 164], the IC50 amounted to 1360 nM.
